Data taken from PubChem BioAssay AID2305 (GlaxoSmithKline (GSK), 2010).

What follows are compounds tested on P. falciparum 3D7 growth, pLDH absorbance (assay: blood-stage malaria parasite growth potency – strain 3D7, dose response (AID 2305)).
With `CCC(C)NC(=O)Nc1ccc(-c2cccc(-c3nc4ccc(C(F)(F)F)cc4[nH]3)c2)cc1` (configuration not stated) the IC50 was 620 nM.
Work on `Cc1cc(NN=Cc2cccc(F)c2)c2cc(F)ccc2n1` yielded an IC50 of 480 nM.
Compound `CCc1nnc2sc(-c3cccc(NC(=O)c4ccc(C)c([N+](=O)[O-])c4)c3)nn12` has an IC50 of 1410 nM.
For `Cc1ccc(C(=O)Nc2cccc(CN3CCCN(Cc4ccc(O)cc4)CC3)c2)s1`, the IC50 was 1000 nM.
With `O=C(c1ccc(F)cc1)N1CCOC(CCN2CCC(c3ccccc3)CC2)(c2ccc(Cl)c(Cl)c2)C1` (configuration not stated) the IC50 was 750 nM.
Compound `CC(NC(=O)c1ccc(O)c(-c2ccc(Cl)c(Cl)c2)c1)C(=O)NCCN1CCCCC1` (configuration not stated) has an IC50 of 870 nM.
With `Cc1cc(=O)c(-c2ccc(Oc3ccc(C(F)(F)F)cc3)cc2)c(C)n1O` the IC50 was 600 nM.
With `COc1cc(-c2[nH]c(-c3ccc(OCCN(C)C)cc3)cc2-c2ccncc2)ccc1Cl` the IC50 was 1790 nM.
`COc1cc(C(F)(F)F)c2cc(CNCCCNc3nc4ccccc4[nH]3)[nH]c2c1` gave an IC50 of 310 nM.
`Cc1cc(CN2C(=O)C(c3ccccc3)(c3ccccc3)N=C2N)c(C(F)(F)F)o1` showed an IC50 of 960 nM.
For `c1cc(CN2CCC(CCN3CCCCC3)CC2)cc(-c2cccc(-c3nc4ccccc4[nH]3)c2)c1`, the IC50 was 140 nM.
`OC1CCCN(Cc2cccc(-c3ccc(-c4nc5ccc(F)cc5[nH]4)cc3)c2)C1` (configuration not stated) was tested, and the IC50 was 780 nM.
For `CC(CN1CCN(C)CC1)C(=O)Nc1cccc(-c2ccc(-c3nc4ccc(C(F)(F)F)cc4[nH]3)cc2)c1` (configuration not stated), the IC50 was 610 nM.
`CCn1c(-c2nonc2N)nc2c(-c3cccc(NC(=O)Nc4cccc(C(F)(F)F)c4)c3)ncc(OCCCN)c21` was tested, and the IC50 was 970 nM.
`CC1(CCCCN2CCC(c3c[nH]c4cnccc34)CC2)C(=O)Nc2cccc(Cl)c21` (configuration not stated) was tested, and the IC50 was 870 nM.
For `CNC(=O)COc1cc(C)c(C2CCN(CCCCNC(=O)c3ccc(-c4ccc(C(F)(F)F)cc4)cc3)CC2)cc1C`, the IC50 was 870 nM.
In the case of `NCC1CCCN1Cc1cccc(-c2ccc(-c3nc4ccc(C(F)(F)F)cc4[nH]3)cc2)c1` (configuration not stated), the IC50 is reported as 780 nM.
Compound `O=C(NCCCN1CCC(N2CCCCC2)CC1)c1ccc(N2CCOc3ccccc32)s1` has an IC50 of 730 nM.
`CCOCc1cnc(C)nc1NCC(=O)c1c(C)[nH]c2cc(C)ccc12` gave an IC50 of 1210 nM.
`N#Cc1ccc(NC(=NC2CCN(Cc3ccccc3)CC2)Nc2ccccc2Cl)c(O)c1` was tested, and the IC50 was 300 nM.
`CC(CN=C(N)c1cccc(C(N)=NCC(C)Oc2cccc(C3CCCCC3)c2)n1)Oc1cccc(C2CCCCC2)c1` (configuration not stated) was tested, and the IC50 was 920 nM.
Compound `CCOc1ccccc1C(=O)Nc1cccc(-c2nc3ncccn3c2C)c1` has an IC50 of 850 nM.
With `CCN1CCCC1CNC(=O)c1cc2c(-c3ccc(Cl)cc3)nn(C)c2s1` (configuration not stated) the IC50 was 790 nM.
For `CCCCCCNC[C@@H](O)[C@H](Cc1ccccc1)NC(=O)c1cc(NCC)cc(N2CCCCS2(=O)=O)c1`, the IC50 was 1000 nM.
`CN(C)c1ccc(-c2nnc(Sc3ccc(C#N)c([N+](=O)[O-])c3)n2Cc2ccco2)cc1` gave an IC50 of 850 nM.
`COc1ccc(-c2cc(C(=O)Nc3ccc4nc(-c5ccccc5)[nH]c4c3)[nH]n2)cc1` was tested, and the IC50 was 700 nM.
`O=C(CCc1cnc[nH]1)Nc1ccc(-c2cccc(-c3nc4ccccc4[nH]3)c2)cc1` gave an IC50 of 350 nM.
Compound `FC(F)(F)c1ccc2nc(-c3cccc(-c4cccc(CNCCN5CCNCC5)c4)c3)[nH]c2c1` has an IC50 of 940 nM.
Work on `Cc1cc(OCCCN2CCC(NS(=O)(=O)c3ccc(Cl)c(Cl)c3)CC2)c2ccccc2n1` yielded an IC50 of 900 nM.
`COc1c(C)[nH]c(C)c(-c2ccc(Oc3cccc(C(F)(F)F)c3)cc2)c1=O` gave an IC50 of 310 nM.
With `Cc1nn(-c2ccccc2)nc1C(=O)NC1CCN(CCNC(=O)c2ccc(Cl)c(Cl)c2)CC1` the IC50 was 870 nM.
Compound `CC(C)C[C@H](NC(=O)c1cc(-c2ccc(C(C)(C)C)cc2)no1)C(=O)O` (tested in a mixture with another compound) has an IC50 of 190 nM.
`Cc1ccc2nc(C)cc(NN=Cc3ccc([N+](=O)[O-])o3)c2c1` showed an IC50 of 750 nM.
`CCOc1ccc(Br)cc1/C=C/C(=O)Nc1ccc2c(c1)[C@@H]1CC[C@H]2N1C` showed an IC50 of 1050 nM.
Compound `CCOc1c(CNCCCCCCNCc2ccc3ccccc3c2OCC)ccc2ccccc12` has an IC50 of 760 nM.
Work on `COc1ccc2c(c1C1CCN(CCCCNC(=O)c3ccc(-c4ccc(Cl)cn4)cc3)CC1)CCCC2` yielded an IC50 of 1020 nM.
In the case of `CC(C)(C)c1ccc2nc(-c3ccc(/C=C/C(=O)NCc4cccc(C(F)(F)F)c4)cc3)[nH]c2c1`, the IC50 is reported as 990 nM.
